# According to the supplement of paper PMC11208160:
# Assay: recombinant UMI read abundance after kanamycin selection (control-corrected) (log10(CPM+1)); higher = more efficient recombination; extreme values may be limits of the assay; sequences stand for … in AGTGCAGAGAAAATCGGCCAGTTTTCTCTGCCTGCAGTCCGCATGCCGTGGGACCCCTTGGGTTCTAACCTGTTGCCTAGATTTATGCAGCGGACTGCCTTTCTCCCAAAGTGATAAACCGG…AGGTTGGTTTCACT; site = the 11-nt donor
# Outline: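 After plating on IPTG (0.07 mM) plus kanamycin, or unselected, in two replicates, recombinant UMIs were PCR-amplified across the donor–target junction and sequenced. The cells were Escherichia coli co-electroporated with a UMI-tagged donor and donor-binding-loop pair library and a target plasmid with a fixed target and T7-inducible IS621 bridge recombinase. Values are log10(CPM+1), with CPM averaged over replicates and scaled by control-derived factors.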
row,Sequence,recombinant UMI read abundance (log10)
1,CCTATAGCATGGACCGGTTTTCCCGGTAATCCGTATTTGAT (site CCTAGAGCTAT),0.0174
2,CCTATAGCATGGACCGGTTTTCCCGGTAATCCGTATTTGAT (site CCTATAGCTAT),0.00747
3,CCTATTACATGGACCGGTTTTCCCGGTAATCCGTATTTGGC (site CCTAATACTGC),0
4,CCTATTACATGGACCGGTTTTCCCGGTAATCCGTATTTGGC (site CCTACTACTGC),0
5,CCTATTACATGGACCGGTTTTCCCGGTAATCCGTATTTGGC (site CCTAGTACTGC),0
6,CCTATTACATGGACCGGTTTTCCCGGTAATCCGTATTTGGC (site CCTATTACTGC),0
7,CCTATTTCATGGACCGGTTTTCCCGGTAATCCGTATTTGGC (site CCTATTTCTGC),0
8,CCTATTTCATGGACCGGTTTTCCCGGTAATCCGTATTTGTC (site CCTATTTCTGA),0
9,CCTCCAACATGGACCGGTTTTCCCGGTAATCCGTATTTGTA (site CCTCCAACTTA),0.0158
10,CCTCGGACATGGACCGGTTTTCCCGGTAATCCGTATTTGGG (site CCTCGGACTCC),0.0416
11,CCTCTAGCATGGACCGGTTTTCCCGGTAATCCGTATTTGTA (site CCTCTAGCTTA),0.352
12,CCTGAGACATGGACCGGTTTTCCCGGTAATCCGTATTTGAG (site CCTGAGACTCT),0.00693
13,CCTGGAACATGGACCGGTTTTCCCGGTAATCCGTATTTGTT (site CATGGAACTAA),0.0113
14,CCTGGAACATGGACCGGTTTTCCCGGTAATCCGTATTTGTT (site CCTGGAACTAA),0.00583
15,CCTGGAACATGGACCGGTTTTCCCGGTAATCCGTATTTGTT (site CGTGGAACTAA),0.00754
16,CCTGGAACATGGACCGGTTTTCCCGGTAATCCGTATTTGTT (site CTTGGAACTAA),0.00851

row,Sequence,recombinant UMI read abundance (log10)
1,CCTGGTGCATGGACCGGTTTTCCCGGTAATCCGTATTTGAT (site CCAGGTGCTAT),0.00887
2,CCTGGTGCATGGACCGGTTTTCCCGGTAATCCGTATTTGAT (site CCCGGTGCTAT),0.00946
3,CCTGGTGCATGGACCGGTTTTCCCGGTAATCCGTATTTGAT (site CCGGGTGCTAT),0.00642
4,CCTGGTGCATGGACCGGTTTTCCCGGTAATCCGTATTTGAT (site CCTGGTGCTAT),0.494
5,CCTGTTCCATGGACCGGTTTTCCCGGTAATCCGTATTTGTC (site CCTGTTCCTGA),0
6,CCTGTTTCATGGACCGGTTTTCCCGGTAATCCGTATTTGAC (site CCTGTTTCTGT),0
7,CCTTAGCCATGGACCGGTTTTCCCGGTAATCCGTATTTGCC (site CCATAGCCTGG),0
8,CCTTAGCCATGGACCGGTTTTCCCGGTAATCCGTATTTGCC (site CCCTAGCCTGG),0
9,CCTTAGCCATGGACCGGTTTTCCCGGTAATCCGTATTTGCC (site CCGTAGCCTGG),0
10,CCTTAGCCATGGACCGGTTTTCCCGGTAATCCGTATTTGCC (site CCTTAGCCTGG),0
11,CCTTCTACATGGACCGGTTTTCCCGGTAATCCGTATTTGAT (site CCTTCTACTAT),0
12,CCTTGACCATGGACCGGTTTTCCCGGTAATCCGTATTTGAG (site CCTTGACCTCT),0.0135
13,CCTTGAGCATGGACCGGTTTTCCCGGTAATCCGTATTTGTA (site CCTTGAGCTTA),0.013
14,CCTTGCACATGGACCGGTTTTCCCGGTAATCCGTATTTGAG (site CCTTGCACTCT),0.0135
15,CCTTGTGCATGGACCGGTTTTCCCGGTAATCCGTATTTGGA (site CCTTGTGCTTC),0.0149
16,CCTTTACCATGGACCGGTTTTCCCGGTAATCCGTATTTGCC (site AGACCGTCTCT),0.00566
